Data reported in patent publication US9540399B2, “Quinolone derivatives” (priority 2013, dated 2017).
In brackets after ≈: the same amount, converted by molar mass.

What was measured:
Experiment in all cases: Bacterial growth minimal inhibitory concentration, microdilution
Assay type in all cases: cell-based
[1] = test system: Acinetobacter baumanii T6474; conditions: Acinetobacter baumannii, multiply-resistant, quinolone-resistant strain, cation-adjusted Mueller Hinton Broth
Method: (§1) Minimal Inhibitory Concentrations (MICs; mg/l) were determined in cation-adjusted Mueller Hinton Broth by a microdilution method following the description given in “Methods for Dilution Antimicrobial Susceptibility Tests for Bacteria that Grow Aerobically”, Approved standard, 7th ed., Clinical and Laboratory Standards Institute (CLSI) Document M7-A7, Wayne, Pa., USA, 2006.
(§2) All Example compounds were tested against several Gram positive and especially Gram negative bacteria. […] Staphylococcus aureus A798, Klebsiella pneumoniae A651 and Acinetobacter baumanii T6474 are multiply-resistant strains (in particular quinolone-resistant), while Moraxella catarrhalis A894 and E. coli ATCC 25922 are quinolone-sensitive strains.

E. coli ATCC 25922 = conditions: Escherichia coli, ATCC25922; quinolone-sensitive strain; cation-adjusted Mueller Hinton Broth
Method: as §1, §2

[2] = test system: Klebsiella pneumoniae A651; conditions: multiply-resistant, quinolone-resistant strain, cation-adjusted Mueller Hinton Broth, read-out: MIC for K. pneumoniae A651
Method: as §1, §2

[3] = test system: Moraxella catarrhalis A894; conditions: quinolone-sensitive strain, cation-adjusted Mueller Hinton Broth
Method: as §1, §2

[4] = test system: Staphylococcus aureus A798; conditions: multiply-resistant, quinolone-resistant strain, cation-adjusted Mueller Hinton Broth, read-out: MIC for S. aureus A798
Method: as §1, §2

| SMILES | MIC [1] | MIC (E. coli ATCC 25922) | MIC [2] | MIC [3] | MIC [4] |
| --- | --- | --- | --- | --- | --- |
| O=C1CSc2ccc(CNC[C@H]3CC[C@H](Nc4nc5c(cc4F)c(=O)c(C(=O)O)cn5C4CC4)CC3)nc2N1 [Example 1, trans-1-Cyclopropyl-6-fluoro-4-oxo-7-(4-{[(3-oxo-3,4-dihydro-2H-pyrido[3,2-b][1,4]thiazin-6-ylmethyl)-amino]-methyl}-cyclohexylamino)-1,4-dihydro-[1,8]naphthyridine-3-carboxylic acid] | 0.125 µg/mL (≈ 0.226 µM) | 0.25 µg/mL (≈ 0.452 µM) | 0.5 µg/mL (≈ 0.905 µM) | 0.125 µg/mL (≈ 0.226 µM) | 1 µg/mL (≈ 1.81 µM) |
| O=C1CSc2ccc(CN[C@H]3CC[C@H](Nc4nc5c(cc4F)c(=O)c(C(=O)O)cn5C4CC4)CC3)nc2N1 [Example 2, trans-1-Cyclopropyl-6-fluoro-4-oxo-7-{4-[(3-oxo-3,4-dihydro-2H-pyrido[3,2-b][1,4]thiazin-6-ylmethyl)-amino]-cyclohexylamino}-1,4-dihydro-[1,8]naphthyridine-3-carboxylic acid] | 0.5 µg/mL (≈ 0.928 µM) | 0.5 µg/mL (≈ 0.928 µM) | 1 µg/mL (≈ 1.86 µM) | 0.25 µg/mL (≈ 0.464 µM) | 4 µg/mL (≈ 7.43 µM) |
| O=C1CSc2ccc(CNC3CCN(CCc4nc5c(cc4F)c(=O)c(C(=O)O)cn5C4CC4)CC3)nc2N1 [Example 3, 1-Cyclopropyl-6-fluoro-4-oxo-7-(2-{4-[(3-oxo-3,4-dihydro-2H-pyrido[3,2-b][1,4]thiazin-6-ylmethyl)-amino]-piperidin-1-yl}-ethyl)-1,4-dihydro-[1,8]naphthyridine-3-carboxylic acid] | 4 µg/mL (≈ 7.24 µM) | 0.25 µg/mL (≈ 0.452 µM) | 1 µg/mL (≈ 1.81 µM) | 0.5 µg/mL (≈ 0.905 µM) | 2 µg/mL (≈ 3.62 µM) |
| O=C1CSc2ccc(CNCCN3CCN(c4nc5c(cc4F)c(=O)c(C(=O)O)cn5C4CC4)CC3)nc2N1 [Example 4, 1-Cyclopropyl-6-fluoro-4-oxo-7-(4-{2-[(3-oxo-3,4-dihydro-2H-pyrido[3,2-b][1,4]thiazin-6-ylmethyl)-amino]-ethyl}-piperazin-1-yl)-1,4-dihydro-[1,8]naphthyridine-3-carboxylic acid] | 2 µg/mL (≈ 3.61 µM) | 1 µg/mL (≈ 1.81 µM) | 2 µg/mL (≈ 3.61 µM) | 0.25 µg/mL (≈ 0.452 µM) | > 8 µg/mL |
| O=C1CSc2ccc(CNCCC3CCN(c4nc5c(cc4F)c(=O)c(C(=O)O)cn5C4CC4)CC3)nc2N1 [Example 5, 1-Cyclopropyl-6-fluoro-4-oxo-7-(4-{2-[(3-oxo-3,4-dihydro-2H-pyrido[3,2-b][1,4]thiazin-6-ylmethyl)-amino]-ethyl}-piperidin-1-yl)-1,4-dihydro-[1,8]naphthyridine-3-carboxylic acid] | 1 µg/mL (≈ 1.81 µM) | 0.5 µg/mL (≈ 0.905 µM) | 2 µg/mL (≈ 3.62 µM) | 0.125 µg/mL (≈ 0.226 µM) | 8 µg/mL (≈ 14.5 µM) |
| O=C1CSc2ccc(CN3CCC(CCNc4nc5c(cc4F)c(=O)c(C(=O)O)cn5C4CC4)CC3)nc2N1 [Example 6, 1-Cyclopropyl-6-fluoro-4-oxo-7-{2-[1-(3-oxo-3,4-dihydro-2H-pyrido[3,2-b][1,4]thiazin-6-ylmethyl)-piperidin-4-yl]-ethylamino}-1,4-dihydro-[1,8]naphthyridine-3-carboxylic acid] | 0.5 µg/mL (≈ 0.905 µM) | 2 µg/mL (≈ 3.62 µM) | 2 µg/mL (≈ 3.62 µM) | 0.5 µg/mL (≈ 0.905 µM) | > 8 µg/mL |
| O=C1CSc2ccc(CNCC3CCN(c4nc5c(cc4F)c(=O)c(C(=O)O)cn5C4CC4)CC3)nc2N1 [Example 7, 1-Cyclopropyl-6-fluoro-4-oxo-7-(4-{[(3-oxo-3,4-dihydro-2H-pyrido[3,2-b][1,4]thiazin-6-ylmethyl)-amino]-methyl}-piperidin-1-yl)-1,4-dihydro-[1,8]naphthyridine-3-carboxylic acid] | 2 µg/mL (≈ 3.71 µM) | 0.5 µg/mL (≈ 0.928 µM) | 4 µg/mL (≈ 7.43 µM) | 0.031 µg/mL (≈ 0.0576 µM) | > 8 µg/mL |
| O=C1COc2ccc(CNC[C@H]3CC[C@H](Nc4nc5c(cc4F)c(=O)c(C(=O)O)cn5C4CC4)CC3)nc2N1 [Example 8, trans-1-Cyclopropyl-6-fluoro-4-oxo-7-(4-{[(3-oxo-3,4-dihydro-2H-pyrido[3,2-b][1,4]oxazin-6-ylmethyl)-amino]-methyl}-cyclohexylamino)-1,4-dihydro-[1,8]naphthyridine-3-carboxylic acid] | > 8 µg/mL | 0.5 µg/mL (≈ 0.932 µM) | 8 µg/mL (≈ 14.9 µM) | 0.25 µg/mL (≈ 0.466 µM) | > 8 µg/mL |
| O=C1CSc2ccc(CNCC3CCN(Cc4nc5c(cc4F)c(=O)c(C(=O)O)cn5C4CC4)CC3)nc2N1 [Example 9, 1-Cyclopropyl-6-fluoro-4-oxo-7-(4-{[(3-oxo-3,4-dihydro-2H-pyrido[3,2-b][1,4]thiazin-6-ylmethyl)-amino]-methyl}-piperidin-1-ylmethyl)-1,4-dihydro-[1,8]naphthyridine-3-carboxylic acid] | 8 µg/mL (≈ 14.5 µM) | 1 µg/mL (≈ 1.81 µM) | 2 µg/mL (≈ 3.62 µM) | 1 µg/mL (≈ 1.81 µM) | > 8 µg/mL |
| O=C1CSc2ccc(CNC3CCN(c4nc5c(cc4F)c(=O)c(C(=O)O)cn5C4CC4)CC3)nc2N1 [Example 10, 1-Cyclopropyl-6-fluoro-4-oxo-7-{4-[(3-oxo-3,4-dihydro-2H-pyrido[3,2-b][1,4]thiazin-6-ylmethyl)-amino]-piperidin-1-yl}-1,4-dihydro-[1,8]naphthyridine-3-carboxylic acid] | 0.25 µg/mL (≈ 0.477 µM) | 0.5 µg/mL (≈ 0.953 µM) | 1 µg/mL (≈ 1.91 µM) | 0.063 µg/mL (≈ 0.12 µM) | 4 µg/mL (≈ 7.63 µM) |
| O=C1CSc2ccc(CNCCN3CCN(c4cc5c(cc4F)c(=O)c(C(=O)O)cn5C4CC4)CC3)nc2N1 [Example 11, 1-Cyclopropyl-6-fluoro-4-oxo-7-(4-{2-[(3-oxo-3,4-dihydro-2H-pyrido[3,2-b][1,4]thiazin-6-ylmethyl)-amino]-ethyl}-piperazin-1-yl)-1,4-dihydro-quinoline-3-carboxylic acid] | > 8 µg/mL | 2 µg/mL (≈ 3.62 µM) | 8 µg/mL (≈ 14.5 µM) | 1 µg/mL (≈ 1.81 µM) | 8 µg/mL (≈ 14.5 µM) |
| O=C1COc2ccc(CNCCN3CCN(c4nc5c(cc4F)c(=O)c(C(=O)O)cn5C4CC4)CC3)nc2N1 [Example 12, 1-Cyclopropyl-6-fluoro-4-oxo-7-(4-{2-[(3-oxo-3,4-dihydro-2H-pyrido[3,2-b][1,4]oxazin-6-ylmethyl)-amino]-ethyl}-piperazin-1-yl)-1,4-dihydro-[1,8]naphthyridine-3-carboxylic acid] | 8 µg/mL (≈ 14.9 µM) | 2 µg/mL (≈ 3.72 µM) | 8 µg/mL (≈ 14.9 µM) | 1 µg/mL (≈ 1.86 µM) | > 8 µg/mL |
| Cn1cc(C(=O)O)c(=O)c2cc(F)c(N[C@H]3CC[C@H](CNCc4ccc5c(n4)NC(=O)CS5)CC3)nc21 [Example 13, trans-6-Fluoro-1-methyl-4-oxo-7-(4-{[(3-oxo-3,4-dihydro-2H-pyrido[3,2-b][1,4]thiazin-6-ylmethyl)-amino]-methyl}-cyclohexylamino)-1,4-dihydro-[1,8]naphthyridine-3-carboxylic acid] | 0.125 µg/mL (≈ 0.237 µM) | 0.063 µg/mL (≈ 0.12 µM) | 0.25 µg/mL (≈ 0.475 µM) | 0.031 µg/mL (≈ 0.0589 µM) | 1 µg/mL (≈ 1.9 µM) |
| Cn1cc(C(=O)O)c(=O)c2cc(F)c(N[C@H]3CC[C@H](CNCc4ccc5c(n4)NC(=O)CO5)CC3)nc21 [Example 14, trans-6-Fluoro-1-methyl-4-oxo-7-(4-{[(3-oxo-3,4-dihydro-2H-pyrido[3,2-b][1,4]oxazin-6-ylmethyl)-amino]-methyl}-cyclohexylamino)-1,4-dihydro-[1,8]naphthyridine-3-carboxylic acid] | 1 µg/mL (≈ 1.96 µM) | 0.125 µg/mL (≈ 0.245 µM) | 1 µg/mL (≈ 1.96 µM) | 0.063 µg/mL (≈ 0.123 µM) | 8 µg/mL (≈ 15.7 µM) |
| CCn1cc(C(=O)O)c(=O)c2cc(F)c(N[C@H]3CC[C@H](CNCc4ccc5c(n4)NC(=O)CS5)CC3)nc21 [Example 15, trans-1-Ethyl-6-fluoro-4-oxo-7-(4-{[(3-oxo-3,4-dihydro-2H-pyrido[3,2-b][1,4]thiazin-6-ylmethyl)-amino]-methyl}-cyclohexylamino)-1,4-dihydro-[1,8]naphthyridine-3-carboxylic acid] | 0.063 µg/mL (≈ 0.117 µM) | 0.125 µg/mL (≈ 0.231 µM) | 0.5 µg/mL (≈ 0.925 µM) | 0.031 µg/mL (≈ 0.0573 µM) | 1 µg/mL (≈ 1.85 µM) |
| Cn1cc(C(=O)O)c(=O)c2cc(F)c(N3CCC(CCNCc4ccc5c(n4)NC(=O)CO5)CC3)nc21 [Example 16, 6-Fluoro-1-methyl-4-oxo-7-(4-{2-[(3-oxo-3,4-dihydro-2H-pyrido[3,2-b][1,4]oxazin-6-ylmethyl)-amino]-ethyl}-piperidin-1-yl)-1,4-dihydro-[1,8]naphthyridine-3-carboxylic acid] | 0.5 µg/mL (≈ 0.979 µM) | 0.25 µg/mL (≈ 0.49 µM) | 1 µg/mL (≈ 1.96 µM) | 0.125 µg/mL (≈ 0.245 µM) | 2 µg/mL (≈ 3.92 µM) |
| Cn1cc(C(=O)O)c(=O)c2cc(F)c(N3CCC(CCNCc4ccc5c(n4)NC(=O)CS5)CC3)nc21 [Example 17, 6-Fluoro-1-methyl-4-oxo-7-(4-{2-[(3-oxo-3,4-dihydro-2H-pyrido[3,2-b][1,4]thiazin-6-ylmethyl)-amino]-ethyl}-piperidin-1-yl)-1,4-dihydro-[1,8]naphthyridine-3-carboxylic acid] | 0.125 µg/mL (≈ 0.237 µM) | 0.125 µg/mL (≈ 0.237 µM) | 0.5 µg/mL (≈ 0.949 µM) | 0.031 µg/mL (≈ 0.0589 µM) | 0.5 µg/mL (≈ 0.949 µM) |
